System: Na^+—K^+-2Cl^− cotransport activity of Xenopus oocytes
Assay: Endogenous Na+-K+-2Cl- cotransport activity of Xenopus oocytes
Type: cell-based
Settings: 100 μM DIOA
Experimental: The sensitivity of the KCCs to other inhibitors of red cell K^+—Cl^− cotransport was also assessed in oocytes injected with KCC4 or KCC1. FIG. 18 illustrates the effect of 100 μM DIDS and 100 μM DIOA on the ^86Rb^+ uptake induced by the microinjection of each KCC cRNA. The effect of extracellular K^+ concentration on the inhibition of cotransport was very dramatic for DIDS. […] However, inhibition of KCC4 was higher when extracellular K^+ was lower, although this was not the case for KCC1. DIOA is reportedly specific for K^+—Cl^− cotransport over Na^+—K^+-2Cl^− cotransport (Garay et al. (1988) Mol Pharmacol 33:696–701), and the same concentration of DIOA had no effect on the function of the Na^+—K^+-2Cl^− cotransport activity of Xenopus oocytes (Gamba et al. (1994) J Biol Chem 269: 17713–17722).

In the case of `CCCCC1(C2CCCC2)Cc2cc(OCC(=O)O)c(Cl)c(Cl)c2C1=O` (stereo not shown) [DIOA], the “effect on Na+-K+-2Cl- cotransport activity of Xenopus oocytes” value is reported as “no effect”.
